Results as given in patent US20260125378A2, “Heterocyclic Compounds” (BeOne Medicines I GmbH, priority 2023, published 2026).

Legend:
[1] = target: T1, Full length DGKζ (in-house protein M1-V929) (Homo sapiens, UniProt Q13574); assay: Biochemical DGK IC50 assay (ADP-Glo, lipid micelle substrate), DGKζ; details: 1 hour preincubation, 1 hour reaction, room temperature
T1 construct: His (N); TEV site (N); made in house; host or cells: Sf9 insect cells (Bac-to-Bac baculovirus)
Summary of the method: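 Full-length human DGKζ (M1-V929, His-TEV tagged, Sf9 baculovirus-expressed) with DAG/PS lipid micelle substrate in octyl glucoside, at room temperature in 50 mM HEPES, 10 mM MgCl2, 0.01 mM CaCl2 buffer.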

[2] = target: T2, Full length DGKα (D21-10BG, SignalChem) (Homo sapiens, UniProt P23743); assay: Biochemical DGK IC50 assay (ADP-Glo, lipid micelle substrate), DGKα; details: 1 hour preincubation, 1 hour reaction, room temperature
T2 construct: Full length DGKα (D21-10BG, SignalChem); purchased SignalChem D21-10BG
Summary of the method: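 Full-length human DGKα with DAG/PS lipid micelle substrate (in octyl glucoside buffer), reacted 1 h at room temperature in 50 mM HEPES, 10 mM MgCl2, 0.01 mM CaCl2, 0.1 mM Na3VO4, 0.01% BSA, 0.005% Tween-20. ADP formed read by ADP-Glo luminescence; IC50 from inhibition across increasing compound concentrations.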

T1 sequence (Q13574 1-929 isoform Q13574-4): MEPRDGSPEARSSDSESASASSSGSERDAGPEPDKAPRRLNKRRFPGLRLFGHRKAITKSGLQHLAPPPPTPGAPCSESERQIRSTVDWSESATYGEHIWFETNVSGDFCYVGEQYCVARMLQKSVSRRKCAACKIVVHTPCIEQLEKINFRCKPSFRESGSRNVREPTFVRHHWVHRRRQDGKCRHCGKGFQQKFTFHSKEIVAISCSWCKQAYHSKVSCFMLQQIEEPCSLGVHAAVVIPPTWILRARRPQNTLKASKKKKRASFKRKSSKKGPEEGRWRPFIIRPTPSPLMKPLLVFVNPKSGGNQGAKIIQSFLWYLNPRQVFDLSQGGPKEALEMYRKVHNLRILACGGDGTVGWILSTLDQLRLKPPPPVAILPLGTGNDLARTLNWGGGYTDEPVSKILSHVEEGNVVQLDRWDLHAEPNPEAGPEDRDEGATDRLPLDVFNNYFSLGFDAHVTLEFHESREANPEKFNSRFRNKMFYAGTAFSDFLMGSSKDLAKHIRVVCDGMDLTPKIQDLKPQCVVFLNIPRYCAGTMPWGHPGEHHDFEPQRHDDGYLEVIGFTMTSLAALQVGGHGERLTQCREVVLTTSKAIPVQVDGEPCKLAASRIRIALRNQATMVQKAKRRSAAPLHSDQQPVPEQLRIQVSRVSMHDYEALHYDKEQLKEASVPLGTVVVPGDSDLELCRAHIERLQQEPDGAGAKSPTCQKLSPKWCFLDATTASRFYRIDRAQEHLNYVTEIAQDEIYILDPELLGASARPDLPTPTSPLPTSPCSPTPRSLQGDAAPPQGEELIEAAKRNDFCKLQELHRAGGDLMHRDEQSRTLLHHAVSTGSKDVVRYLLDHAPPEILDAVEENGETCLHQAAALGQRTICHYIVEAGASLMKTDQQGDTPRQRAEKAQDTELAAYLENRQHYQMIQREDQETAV
T2 sequence (P23743 whole entry): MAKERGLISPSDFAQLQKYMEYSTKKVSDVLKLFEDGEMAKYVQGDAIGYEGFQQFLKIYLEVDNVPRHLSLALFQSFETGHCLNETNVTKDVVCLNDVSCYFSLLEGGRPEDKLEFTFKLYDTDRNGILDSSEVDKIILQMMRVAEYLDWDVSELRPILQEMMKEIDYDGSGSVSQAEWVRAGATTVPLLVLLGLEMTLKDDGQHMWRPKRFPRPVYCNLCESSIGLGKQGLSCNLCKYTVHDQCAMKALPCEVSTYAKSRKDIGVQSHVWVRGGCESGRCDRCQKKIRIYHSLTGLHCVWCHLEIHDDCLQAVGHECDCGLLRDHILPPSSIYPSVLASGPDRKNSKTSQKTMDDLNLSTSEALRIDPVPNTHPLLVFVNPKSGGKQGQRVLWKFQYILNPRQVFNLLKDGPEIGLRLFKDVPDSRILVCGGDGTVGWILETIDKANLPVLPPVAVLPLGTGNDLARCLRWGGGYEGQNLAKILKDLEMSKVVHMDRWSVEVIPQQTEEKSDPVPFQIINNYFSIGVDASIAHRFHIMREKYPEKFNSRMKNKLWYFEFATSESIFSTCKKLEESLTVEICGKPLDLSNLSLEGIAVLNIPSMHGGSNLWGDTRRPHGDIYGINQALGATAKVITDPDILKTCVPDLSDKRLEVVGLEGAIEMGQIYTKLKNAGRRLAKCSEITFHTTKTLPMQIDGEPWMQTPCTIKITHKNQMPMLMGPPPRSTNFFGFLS

Row | SMILES | IC50 [1] [nM] | IC50 [2] [nM]
1 | CCn1c(CC#N)nc2c(N3C[C@@H](C)N(C(C)c4cccc(C(C)C)n4)C[C@@H]3C)nc(=O)n(C)c21 (stereo partly drawn) [Compound A123, 2-(9-ethyl-6-((2S,5R)-4-(1-(6-isopropylpyridin-2-yl)ethyl)-2,5-dimethylpiperazin-1-yl)-3-methyl-2-oxo-3,9-dihydro-2H-purin-8-yl)acetonitrile] | 49 | 128000
2 | CC(c1cccc(C(F)(F)F)c1)N1C[C@H](C)N(c2nc(=O)n(C)c3c2nc(CC#N)n3C)C[C@H]1C (stereo partly drawn) [Compound A41, 2-(6-((2S,5R)-2,5-dimethyl-4-(1-(3-(trifluoromethyl)phenyl)ethyl)piperazin-1-yl)-3,9-dimethyl-2-oxo-3,9-dihydro-2H-purin-8-yl)acetonitrile] | 16 | 9700
3 | CCn1c(CC#N)nc2c(N3C[C@@H](C)N(C(C)c4ccc(F)cc4C(F)(F)F)C[C@@H]3C)nc(=O)n(C)c21 (single isomer, unassigned) [Compound A35b] | 24 | > 150000
4 | CCn1c(CC#N)nc2c(N3C[C@@H](C)N(C(C)c4cccc(N5CC6(COC6)C5)c4)C[C@@H]3C)nc(=O)n(C)c21 (stereo partly drawn) [Compound A140, 2-(6-((2S,5R)-4-(1-(3-(2-oxa-6-azaspiro[3.3]heptan-6-yl)phenyl)ethyl)-2,5-dimethylpiperazin-1-yl)-9-ethyl-3-methyl-2-oxo-3,9-dihydro-2H-purin-8-yl)acetonitrile] | 594 | > 150000
5 | CCn1c(CC#N)nc2c(N3C[C@@H](C)N(C(C)c4ccc5c(c4)OC(C)(C)O5)C[C@@H]3C)nc(=O)n(C)c21 (single isomer, unassigned) [Compound A85a] | 1250 | 148000
6 | CCn1c(CC#N)nc2c(N3C[C@@H](C)N(C(C)c4ccc5c(c4)OC(F)(F)CO5)C[C@@H]3C)nc(=O)n(C)c21 (single isomer, unassigned) [Compound A80b] | 664 | > 150000
7 | Cc1ccc(C(C)N2C[C@H](C)N(c3cc(=O)n(C)c4sc(CC#N)nc34)C[C@H]2C)c(C(F)(F)F)c1 (stereo partly drawn) [Compound A196, 2-(7-((2S,5R)-2,5-dimethyl-4-(1-(4-methyl-2-(trifluoromethyl)phenyl)ethyl)piperazin-1-yl)-4-methyl-5-oxo-4,5-dihydrothiazolo[5,4-b]pyridin-2-yl)acetonitrile] | 749 | > 10000
8 | COC[C@H]1CN(C(C)c2ccc3c(c2)OCCO3)[C@H](C)CN1c1nc(=O)n(C)c2c1nc(CC#N)n2C (single isomer, unassigned) [Compound A11b] | 14 | 11900
9 | CC[C@H]1CN(C(C)c2ccc3c(c2)OC(C)(C)CO3)[C@H](CC)CN1c1nc(=O)n(C)c2c1nc(CC#N)n2C (single isomer, unassigned) [Compound A64b] | 14 | 4750
10 | CC(c1cc2c(cc1F)OCC(C)(C)O2)N1C[C@H](C)N(c2nc(=O)n(C)c3c2nc(CC#N)n3C)C[C@H]1C (single isomer, unassigned) [Compound A69a] | 2 | 1190
11 | CCn1c(CC#N)nc2c(N3C[C@@H](C)N(C(C)c4cc(C(F)(F)F)ccc4F)C[C@@H]3C)nc(=O)n(C)c21 (stereo partly drawn) [Compound A114, 2-(9-ethyl-6-((2S,5R)-4-(1-(2-fluoro-5-(trifluoromethyl)phenyl)ethyl)-2,5-dimethylpiperazin-1-yl)-3-methyl-2-oxo-3,9-dihydro-2H-purin-8-yl)acetonitrile] | 246 | 135000
12 | CC(c1ccc2c(c1)OC(C)(C)CO2)N1C[C@H](C)N(c2nc(=O)n(C)c3c2nc(CC#N)n3C)C[C@H]1C (single isomer, unassigned) [Compound A59b] | 2.3 | 14200
13 | CC(c1ccc2c(c1)OC(C)(C)O2)N1C[C@H](C)N(c2nc(=O)n(C)c3c2nc(CC#N)n3C)C[C@H]1C (single isomer, unassigned) [Compound A98b] | 262 | 19700
14 | CC(c1cc(F)c2c(c1)OC(C)(C)CO2)N1C[C@H](C)N(c2nc(=O)n(C)c3c2nc(CC#N)n3C)C[C@H]1C (mixture of isomers) [Compound A68, 2-(6-((2S,5R)-4-(1-(8-fluoro-3,3-dimethyl-2,3-dihydrobenzo[b][1,4]dioxin-6-yl)ethyl)-2,5-dimethylpiperazin-1-yl)-3,9-dimethyl-2-oxo-3,9-dihydro-2H-purin-8-yl)acetonitrile] | 7 | 43800
15 | CCn1c(CC#N)nc2c(N3C[C@@H](C)N(C(C)c4cccc(C5CC5)c4)C[C@@H]3C)nc(=O)n(C)c21 (stereo partly drawn) [Compound A125, 2-(6-((2S,5R)-4-(1-(3-cyclopropylphenyl)ethyl)-2,5-dimethylpiperazin-1-yl)-9-ethyl-3-methyl-2-oxo-3,9-dihydro-2H-purin-8-yl)acetonitrile] | 42 | > 150000
16 | CCn1c(CC#N)nc2c(N3C[C@@H](C)N(C(C)c4ccc5c(c4)OC(C)(C)C5=O)C[C@@H]3C)nc(=O)n(C)c21 (stereo partly drawn) [Compound A179, 2-(6-((2S,5R)-4-(1-(2,2-dimethyl-3-oxo-2,3-dihydrobenzofuran-6-yl)ethyl)-2,5-dimethylpiperazin-1-yl)-9-ethyl-3-methyl-2-oxo-3,9-dihydro-2H-purin-8-yl)acetonitrile] | 6 | 69000
17 | CCn1c(CC#N)nc2c(N3C[C@@H](C)N(C(C)c4cc(F)cc(C(F)F)c4)C[C@@H]3C)nc(=O)n(C)c21 (stereo partly drawn) [Compound A38, 2-(6-((2S,5R)-4-(1-(3-(difluoromethyl)-5-fluorophenyl)ethyl)-2,5-dimethylpiperazin-1-yl)-9-ethyl-3-methyl-2-oxo-3,9-dihydro-2H-purin-8-yl)acetonitrile] | 165 | 143000
18 | CCn1c(CC#N)nc2c(N3C[C@@H](C)N(C(C)c4cc(F)c5c(c4)OC(C)(C)O5)C[C@@H]3C)nc(=O)n(C)c21 (mixture of isomers) [Compound A173, 2-(9-ethyl-6-((2S,5R)-4-(1-(7-fluoro-2,2-dimethylbenzo[d][1,3]dioxol-5-yl)ethyl)-2,5-dimethylpiperazin-1-yl)-3-methyl-2-oxo-3,9-dihydro-2H-purin-8-yl)acetonitrile] | 44 | 143000
19 | Cc1ccc(C(C)N2C[C@H](C)N(c3nc(=O)n(C)c4c3nc(CC#N)n4C)C[C@H]2C)c(C(F)(F)F)c1 (single isomer, unassigned) [Compound A32b] | 138 | 5590
20 | Cc1cnc2ccc(C(C)N3C[C@H](C)N(c4nc(=O)n(C)c5c4nc(CC#N)n5C)C[C@H]3C)cc2n1 (stereo partly drawn) [Compound A49, 2-(6-((2S,5R)-2,5-dimethyl-4-(1-(3-methylquinoxalin-6-yl)ethyl)piperazin-1-yl)-3,9-dimethyl-2-oxo-3,9-dihydro-2H-purin-8-yl)acetonitrile] | 35 | 123000
21 | CC[C@H]1CN(C(C)c2ccc3ncc(C)nc3c2)[C@H](CC)CN1c1nc(=O)n(C)c2c1nc(CC#N)n2C (single isomer, unassigned) [Compound A51b] | 265 | 22300
22 | CC[C@@H]1CN(c2nc(=O)n(C)c3c2nc(CC#N)n3C)[C@@H](C)CN1C(C)c1ccc2ncc(C)nc2c1 (single isomer, unassigned) [Compound A50a] | 4 | 24700
23 | CC(c1ccc2nccnc2c1)N1C[C@H](C)N(c2cc(=O)n(C)c3sc(CC#N)nc23)C[C@H]1C (mixture of isomers) [Compound A194, 2-(7-((2S,5R)-2,5-dimethyl-4-(1-(quinoxalin-6-yl)ethyl)piperazin-1-yl)-4-methyl-5-oxo-4,5-dihydrothiazolo[5,4-b]pyridin-2-yl)acetonitrile] | 7 | 4080
24 | CC[C@@H]1CN(c2nc(=O)n(C)c3c2nc(CC#N)n3C)[C@@H](C)CN1C(C)c1ccc2c(n1)OC(C)(C)CO2 (mixture of isomers) [Compound A159, 2-(6-((2S,5R)-4-(1-(3,3-dimethyl-2,3-dihydro-[1,4]dioxino[2,3-b]pyridin-6-yl)ethyl)-5-ethyl-2-methylpiperazin-1-yl)-3,9-dimethyl-2-oxo-3,9-dihydro-2H-purin-8-yl)acetonitrile] | 11 | 31500
25 | CCn1c(CC#N)nc2c(N3C[C@@H](C)N(C(C)c4ccc5c(c4Cl)OC(C)(C)O5)C[C@@H]3C)nc(=O)n(C)c21 (single isomer, unassigned) [Compound A172a] | 170 | 132000
26 | CCn1c(CC#N)nc2c(N3C[C@@H](C)N(C(C)c4ccnc(NC(C)C)c4)C[C@@H]3C)nc(=O)n(C)c21 (stereo partly drawn) [Compound A122, 2-(9-ethyl-6-((2S,5R)-4-(1-(2-(isopropylamino)pyridin-4-yl)ethyl)-2,5-dimethylpiperazin-1-yl)-3-methyl-2-oxo-3,9-dihydro-2H-purin-8-yl)acetonitrile] | 834 | > 150000
27 | CC(c1cc(F)c2c(c1)OC(C)(C)CO2)N1C[C@H](C)N(c2nc(=O)n(C)c3c2nc(CC#N)n3C)C[C@H]1C (single isomer, unassigned) [Compound A68a] | 2 | 20300
28 | CCn1c(=O)nc(N2C[C@@H](C)N(C(C)c3ccc4ncc(C)nc4c3)C[C@@H]2C)c2nc(CC#N)n(C)c21 (single isomer, unassigned) [Compound A53b] | 662 | > 150000
